One data set has as its system healthy volunteers. Put plainly: Euglycaemic glucose clamp (glucose infusion rate) after single SC dose in healthy volunteers. The format is in vivo, human. On the procedure: In all treatment periods, subjects undergo a euglycaemic clamp procedure for up to 24/36 hours following each insulin compound injection. Glucose infusion rates (GIR) are adjusted to maintain euglycaemia, with the documented GIR over time providing the GD measure of insulin action. The aim of the euglycaemic glucose clamp is to maintain euglycaemia through glucose infusion after the administration of a dose of an insulin compound. It is assumed that endogenous insulin secretion and hepatic glucose output are minimal and that any glucose that is translocated out of the glucose space (i.e., glucose metabolized) is the direct consequence of the administered exogenous insulin. The GIR in this case will be the glucodynamic (GD) measure of the insulin action over time. All glucose clamp studies are performed after an overnight fast of approximately 8 hours. On the morning of the study, a small catheter is placed into a vein of one arm, ideally in the ante-cubital fossa, for administration of 20% dextrose solution (buffered to near neutral pH) under the control of a volumetric pump. Another catheter is placed, ideally in the wrist or hand for venous glucose sampling. This area is heated with a warming device to approximately 55-60° C. for sampling arterialized venous blood. Blood samples are obtained at the bedside for immediate determination of whole blood glucose concentrations using an automated glucose oxidase technique. After basal blood sampling and a stabilization period of approximately 30 minutes, each subject receives a dose of insulin compound administered subcutaneously. The start of the subcutaneous injection of an insulin compound is defined as time zero. Following completion of dosing, in conjunction with frequent blood sampling for measurement of blood glucose, glucose is infused intravenously at a variable rate in order to maintain euglycaemia for up to 24 or 36 hours after insulin administration.
Blood sampling occurs approximately every 10 minutes for approximately 30 minutes prior to dosing and continued every 5-10 minutes for the first 2 hours after dosing (with the option to sample as frequently as every 2.5 minutes), and then reduced to 10-30 minute intervals up to the end of clamp.
During the glucose clamp, the glucose infusion rate is adjusted to maintain a pre-determined target blood glucose concentration for the individual subject. Preferably, the target concentration is close to the fasting blood glucose. The aim of the glucose clamp procedure is to maintain the blood glucose concentrations within +5% of the pre-dose target value, which is defined as 5 mg/dL below the mean fasting blood glucose. Thus, blood glucose concentrations are kept constant while the GIR varied. […]

For data set [1] the following is noted: calculated from published PK profiles; cited from earlier work.

With “LY: 20 kDa PEGylated insulin lispro, about 95% or more at B28 and 5% or less at A1, prepared as in Example 9”, in the data set on healthy volunteers (Part C, 0.5 mg/kg), the GIR profile shape entry is ““peakless”” and the “time GD maintained” value is “greater than 36 hours”. In the data set with healthy volunteers (Part C, 0.5 mg/kg, glargine 0.5 U/kg, data not shown), the “GIR compared with peak GIR response for glargine” value is “exceeded the peak GIR response for glargine”. Further, the “duration of action compared with insulin glargine” value with healthy volunteers (humans, FIG. 2: LY 0.225 mg/kg, glargine 0.5 U/kg) was “longer than that of insulin glargine”.

With glargine, in data set [1], the “peak-trough (PT) ratio” value is listed as 1.2-2.6.
